Measured values as given in patent US11173124B2, “Oral delivery of GLP-1 peptide analogs” (MEDIMMUNE LIMITED, priority 2017, dated 2021).

Legend:
Caco-2 cells = experiment: Caco-2 study, Permeability (%) of lipidated peptides (Example 3); type: in vitro ADME, human; settings: 0.1 mg/mL peptide
Excerpt: (§1) The Caco-2 cell line is a continuous cell line of heterogeneous human epithelial colorectal adenocarcinoma cells, which when cultured under specific conditions, become differentiated and polarized such that their phenotype, morphologically and functionally, resembles the enterocytes lining the small intestine. Caco-2 cells express tight junctions, microvilli, and a number of enzymes and transporters that are characteristic of such enterocytes. Caco-2 cells are most commonly used as a tight junction monolayer that provides a physical and biochemical barrier to the passage of drugs and thus serves as an in vitro model of the human small intestinal mucosa to predict the absorption of orally administered drugs. Caco-2 permeability assays were performed by Cyprotex US, LLC (MA, USA) to assess the efficacy of different permeation enhancers. Caco-2 cells were grown on Transwell filters until a transepithelial electric resistance of ˜1000 ohms/cm^2 was achieved. The cells were incubated for three hours with media containing test samples on the apical (top) side of the cell layer, and with blank media on the basolateral (lower) side of the cell layer. Media from the apical and basolateral sides was collected separately after three hours and evaluated for the amount of peptide present on each side. Table 2 gives the permeability coefficient (Papp) of the various test samples, which include the SEQ ID NO:3 GLP-1 peptide in the presence of different excipients.
A following Caco-2 study was performed to evaluate the permeability of different peptides in the presence of various permeation enhancers. Permeability (%) was calculated by dividing the cumulative amount of molecules transported with the original loading amount. Concentrations of peptides in starting sample and apical and basal solutions after incubation for pre-determined periods were analyzed by HPLC. Sodium chenodeoxycholate at 25 mg/mL effected the highest permeability of each tested peptide (Table 4).

[1] = Caco-2 permeability assay, permeability coefficient Papp (Examples 1 and 2); type: in vitro ADME, human
Excerpt: as §1
The apparent permeability coefficients (Papp) of all polypeptides were calculated using the following equation: Papp=dQ/dt×1/A C0
Where dQ/dt is the amount of solutes transported across the Caco-2 barrier in time dt, C0 is the solute concentration in the apical compartment at time zero, and A is the cross-sectional area of the epithelium in contact with apical solution.
The next Caco-2 study was performed to evaluate the ability of additional excipients to enhance the permeability of the SEQ ID NO:3 peptide across tight junction cell layers.

- Permeability (%) (Caco-2 cells; 5.0 mg/mL Chitosan): 0%
- Permeability (%) (Caco-2 cells; 5.0 mg/mL Octyl β-D-glucopyranoside): 0%
- Permeability (%) (Caco-2 cells; 5.0 mg/mL Sodium Chenodeoxycholate): 1.7%
- Permeability (%) (Caco-2 cells; 5.0 mg/mL Tri-Me-Chitosan): 0%
- Permeability (%) (Caco-2 cells; 25 mg/mL Chitosan): 0%
- Permeability (%) (Caco-2 cells; 25 mg/mL Octyl β-D-glucopyranoside): 2.0%
- Permeability (%) (Caco-2 cells; 25 mg/mL Sodium Chenodeoxycholate): 12.6%
- Permeability (%) (Caco-2 cells; 25 mg/mL Tri-Me-Chitosan): 0%
- Permeability (%) (Caco-2 cells; no enhancer): 0%
- Papp A→B ([1]; Caco-2, Example 1, 0.05 mg/mL peptide, ⅛ Lauroglycol FCC:Kolliphor EL:Transcutol HP 5:4:3 (w/w)): 0.09 ×10⁻⁶ cm/s
- Papp A→B ([1]; Caco-2, Example 1, 0.1 mg/mL peptide, 0.5 mg/mL Tetradecylmaltoside): 0.05 ×10⁻⁶ cm/s
- Papp A→B ([1]; Caco-2, Example 1, 0.1 mg/mL peptide, 2.5 mg/mL Tetradecylmaltoside): 0.88 ×10⁻⁶ cm/s
- Papp A→B ([1]; Caco-2, Example 1, 0.1 mg/mL peptide, 5.0 mg/mL Sodium Chenodeoxycholate): 6.2 ×10⁻⁶ cm/s
- Papp A→B ([1]; Caco-2, Example 1, 0.1 mg/mL peptide, 10.0 mg/mL Sodium Decanoate): 0.4 ×10⁻⁶ cm/s
- Papp A→B ([1]; Caco-2, Example 1, 0.1 mg/mL peptide, 12.5 mg/mL Tetradecylmaltoside): 7.8 ×10⁻⁶ cm/s
- Papp A→B ([1]; Caco-2, Example 1, 0.1 mg/mL peptide, 25.0 mg/mL Sodium Chenodeoxycholate): 10.3 ×10⁻⁶ cm/s
- Papp A→B ([1]; Caco-2, Example 1, 0.1 mg/mL peptide, ¼ Lauroglycol FCC:Kolliphor EL:Transcutol HP 5:4:3 (w/w)): 0.05 ×10⁻⁶ cm/s
- Papp A→B ([1]; Caco-2, Example 2, 0.1 mg/mL peptide, 12.5 mg/mL Dodecylmaltoside): 6.4 ×10⁻⁶ cm/s
- Papp A→B ([1]; Caco-2, Example 2, 0.1 mg/mL peptide, 12.5 mg/mL Tetradecylmaltoside): 1.4 ×10⁻⁶ cm/s
- Papp A→B ([1]; Caco-2, Example 2, 0.1 mg/mL peptide, 25.0 mg/mL Sodium Chenodeoxycholate, 12.5 mg/mL Propyl gallate): 43.1 ×10⁻⁶ cm/s
Structure (SMILES): CC[C@H](C)[C@H](NC(=O)C(C)(Cc1ccccc1)NC(=O)[C@H](CCC(=O)O)NC(=O)[C@H](CCCCNC(=O)COCCOCCNC(=O)COCCOCCNC(=O)CC[C@H](NC(=O)CCCCCCCCCCCCCCCCC(=O)O)C(=O)O)NC(=O)[C@H](C)NC(=O)[C@H](C)NC(=O)[C@H](CCC(=O)O)NC(=O)CNC(=O)[C@H](CCC(=O)O)NC(=O)[C@H](CC(C)C)NC(=O)C(C)(Cc1ccccc1)NC(=O)[C@H](CO)NC(=O)C(C)(CO)NC(=O)[C@@H](NC(=O)[C@H](CC(=O)O)NC(=O)[C@H](CO)NC(=O)[C@@H](NC(=O)C(C)(Cc1ccccc1)NC(=O)[C@H](CO)NC(=O)CNC(=O)[C@H](CCC(=O)O)NC(=O)C(C)(C)NC(=O)[C@@H](N)Cc1c[nH]cn1)[C@@H](C)O)C(C)C)C(=O)N[C@@H](C)C(=O)NC(C)(Cc1ccccc1)C(=O)N[C@H](C(=O)N[C@H](C(=O)NC(C)(CCCCN)C(=O)NCC(=O)NCC(N)=O)C(C)C)C(C)C (stereo partly drawn) [SEQ ID NO: 3, Free-H-[AIB]-EGS-[αMePhe]-TSDV-[αMeSer]-S-[αMePhe]-LEGEAAK[(PEG2)2-γE-Stearate]-E-[αMePhe]-IA-[αMePhe]-VV-[αMeLys]-GG-amide]
